{"source": "patent US11634389B2", "about": "(priority 2018, dated 2023)", "test_system": "Monilinia fructicola isolate", "assay": "Radial mycelial growth on SDHI-amended PDA, Monilinia fructicola isolate (FIG. 4)", "type": "cell-based", "conditions": "versus positive control fluxapyroxad", "experimental": "FIG. 4 depicts the fungicidal performance of a compound according to the disclosure (“1831”) against Monilinia fructicola isolate against a blank control, as compared to fluxapyroxad, a commercially available fungicide (“fluxa”).\nThe inhibitory effects of these SDHI compounds were evaluated against the various pathogenic isolates grown on half-strength potato dextrose agar (PDA) amended with a given SDHI. SDHIs were formulated as 10,000 ppm stocks in DMSO. Inoculated media were prepared using a ratio of 12 g potato dextrose broth powder to 15 g agar to 1 L of deionized water. Upon autoclaving and cooling to 55° C., the media were inoculated with the SDHI compound of interest (1 mL of 10,000 ppm stock in 1 L media) then poured into plates. This method represented a 10 ppm trial for the SDHI compound. Mycelial plugs were cut from the leading growth of active fungal colonies (supported on full PDA media) and placed mycelia-down in the center of a plate. After an appropriate number of days (3-14 days, depending on pathogen), the radial growth was measured (average of three plates), and reported as the radial mycelial growth or as radial mycelial growth relative to a control. An analogous procedure was employed to determine the EC50 value by varying the concentration of the initial SDHI compound DMSO stock. […]", "data": [{"smiles": "Cn1ncc(C(=O)NC23CCC(c4ccccc42)C3(C)C)c1Cl", "note": "(stereo not shown) [compound 1831]", "values": [{"measurement": "radial growth relative to that seen with fluxapyroxad", "value": "about half"}]}]}
